Values joined by “and” are separate entries in the source; they are usually repeats but may differ in a detail not shown here. Equal entries are not always repeated.
Legend:
neuron [1] = assay: acetyl-CoA level in primary cells (assay kit); format: cell-based, C57BL/6 mice; conditions: Ab 10mM, replicates
Protocol: To confirm the generation and roles of N-AS in neurons, cells from E18 C57BL/6 mice were prepared as previously described. Cortices were dissected and then dissociated followed by incubation in papain (Worthington) at 37 °C for 15 min. Neurons were plated on poly-L-lysine-coated coverslips with neuronal culture medium, serum-free Neurobasal medium (Gibco) containing 2% B27 supplements (Gibco), 1 mM Glutamax supplement (Gibco), and 100 U ml^−1 streptomycin/ 100 U ml^−1 penicillin (Gibco) at 37 °C in a humidified atmosphere of 5% CO2. […] Primary astrocyte cultures were prepared from C57BL/6 mice as described previously. In brief, after removal of the meninges, postnatal day 7 (P7) mouse brain tissues were minced and incubated in a rocking water bath at 37 °C for 30 min in the presence of 0.25% trypsin-EDTA (Sigma-Aldrich). Enzyme-digested dissociated cells were triturated with astrocyte-specific medium (DMEM/F12 containing 10% FBS and 1% penicillin-streptomycin) and centrifuged at 155×g for 8 min. The pellet was resuspended in astrocyte-specific medium and passed through a 40-μm cell strainer. […] The human microglia treated with Aβ 1–42 and/or zileuton was incubated with N-AS (2.5 μM, 2 h, Sigma-Aldrich, 01912), and were analyzed for the generation and roles of N-AS. […]

neuron [2] = assay: sphingosine level in primary cells (UPLC); format: cell-based, C57BL/6 mice; conditions: Ab 10mM, replicates
Protocol: To confirm the generation and roles of N-AS in neurons, cells from E18 C57BL/6 mice were prepared as previously described. Cortices were dissected and then dissociated followed by incubation in papain (Worthington) at 37 °C for 15 min. Neurons were plated on poly-L-lysine-coated coverslips with neuronal culture medium, serum-free Neurobasal medium (Gibco) containing 2% B27 supplements (Gibco), 1 mM Glutamax supplement (Gibco), and 100 U ml^−1 streptomycin/ 100 U ml^−1 penicillin (Gibco) at 37 °C in a humidified atmosphere of 5% CO2. […] Primary astrocyte cultures were prepared from C57BL/6 mice as described previously. In brief, after removal of the meninges, postnatal day 7 (P7) mouse brain tissues were minced and incubated in a rocking water bath at 37 °C for 30 min in the presence of 0.25% trypsin-EDTA (Sigma-Aldrich). […] The human microglia treated with Aβ 1–42 and/or zileuton was incubated with N-AS (2.5 μM, 2 h, Sigma-Aldrich, 01912), and were analyzed for the generation and roles of N-AS.
To quantify the sphingosine levels, the dried lipid extract was resuspended in 0.2% Igepal CA-630. […] The fluorescent sphingosine was monitored using a model 474 scanning fluorescence detector (Waters). Quantification of the sphingosine was calculated from sphingosine calibration curves using the Waters Millennium software.

Ab: Aβ 1–42 (Invitrogen, 03112) used to induce an AD environment in cells
acetyl-CoA (Fig 3e) (neuron [1]): 0.1397 and 0.4178 and 0.62 and 0.7945 and 0.1176 and 0.7145
sphingosine (Fig 3f) (neuron [2]): 0.1262 and 0.1156 and 0.1288 and 0.1301 and 0.1222 and 0.1295

Reference: PMC7217877, “N-AS-triggered SPMs are direct regulators of microglia in a model of Alzheimer’s disease” (Nature Communications, 2020)
